{
  "source": "patent US20230210906A1",
  "about": "“Composite 3D Brain Organoids with Optic Structures, Uses Thereof and Culture Medium for Obtaining Them” (priority 2022, published 2023)",
  "key": {"[1]": {"test_system": "sodium channel of organoid neurons (cell lines IMR-90 and GM25256)", "assay_type": "cell-based, human"}, "[2]": {"test_system": "rod-bipolar synaptic disjunction", "details": "cited from earlier work"}, "[3]": {"test_system": "cells of the cell line IMR90", "assay": "Optic vesicle formation in iPSC-derived 3D brain organoids exposed to retinol acetate", "assay_type": "cell-based, human", "details": "for Percentage of organoids with optic vesicles (%): cell line IMR90", "protocol": "It is important to start differentiation with a well-maintained human iPS cell culture. Cells were splitted once after thawing, mycoplasma tested and checked for appropriate stem cell morphology. Before inducing neural differentiation, iPS cells were dissociated to single cells. Therefore, iPS cells were once carefully washed with pre-warmed DMEM/F12 (Gibco) and then treated for 5 min. at 37° C. with Accutase (Sigma-Aldrich). After cell collection, centrifuging and counting, cells were diluted in neural induction medium (NIM, Stem cell technologies) plus Rockinhibitor (10 μM, Y-27632 2HCl, Selleck Chem) at a concentration of 1×10^5 cells per ml. 100 μl of this cell suspension was given into each well of a 96-well v-bottom low adherent plate and incubated at 37° C. and 5% CO2. Half of the medium was changed every day for 5 days until neurospheres were formed.\nAt day 5 of neural induction, the neurospheres were collected carefully with a cut […] pipette tip and transferred to a 100 mm petri dish containing “neurosphere medium” (Table 9). Additionally, 0.1% Matrigel was added to the medium and neurospheres were incubated for 5 days at 37° C. and 5% CO2. At day 3, 2 ml of “optic vesicle 3D brain organoid medium” (Table 10) containing retinol acetate was added. At day 5, neurospheres were transferred to spinner flasks containing 100 ml “optic vesicle 3D brain organoid medium” ([…]) to let the neurospheres developing to optic vesicle containing brain organoids. […] Optic vesicle organoids were collected for experiments at day 20, 30 and 50. For each cell line, we performed at least 3-4 rounds (batches) of optic vesicle 3D brain organoid generation. Each batch comprises of starting from thawing iPSCs until generating optic vesicle organoids. Morphological and functional optic vesicles brain organoids were easily identified by visibly pigmented areas and used for further analyses."}, "[4]": {"test_system": "A2E formation and lipofuscin accumulation", "details": "mouse model of recessive Stargardt's macular degeneration; cited from earlier work"}, "[5]": {"test_system": "optic vesicle brain organoids (cell line GM25256)", "protocol": "Optic vesicle organoids of day 40 to 50 were transferred to wells of a 12-wellplate each with 2 ml of optic organoid medium and kept in absolute darkness at 37° C. and 5% CO2 for 24 hours before electroretinogram (ERG) experiments. For ERG, each organoid was placed under red light in an electrode chamber. The electrode chamber was then placed into the dark chamber of the ERG apparatus and connected to the superfusion system containing optic organoid medium. For dose dependent light sensitivity, organoids were exposed to 500 milliseconds long flashes of 2000, 20.000 and 200.000 mlux. Each light intensity was repeated three times in a time interval of 3 min. before the next higher light intensity was applied and responses were recorded. Speed of superfusion was 0.5 ml/min.\nFor a third experiment, organoids were superfused in optic organoid medium with higher speed of 2 ml/min. […] For isolating the A-wave by blocking signal transduction from photoreceptors to next the retinal cell layers, 10 mM aspartate was added to the medium after the equilibration time and electric response was continuously recorded. Finally, aspartate was washed out by adding optic organoid medium without aspartate into the system while recording of electric signals as response to flashes."}},
  "note": "Read-outs that look alike come from different tables or passages of the source.",
  "data": [
    {"compound": "NC1=N[C@H](O)[C@H]2[C@H]3O[C@]4(O)O[C@@H]([C@@H](O)[C@@]2(N1)[C@@H]4O)[C@]3(O)CO", "note": "[TTX, Tetrodotoxin]", "values": [
      {"measurement": "Effect on Na+ current (inward current) of neurons", "setting": "[1]", "result": "blocked Na+ current"},
      {"measurement": "Sensitivity of outward (outwardly rectifying K+) current", "setting": "[1]", "result": "TTX insensitive"}
    ]},
    {"compound": "O=S(=O)(c1cccc2cnccc12)N1CCCNCC1", "note": "[fasudil]", "values": [
      {"measurement": "Effect on rod-bipolar synaptic disjunction", "setting": "[2]; intravitreal injection", "result": "effective"},
      {"measurement": "Effect on rod-bipolar synaptic disjunction", "setting": "[2]; subretinal injection", "result": "reduces rod-bipolar synaptic disjunction"}
    ]},
    {"compound": "retinol acetate [Retinoic acetate]", "values": [
      {"measurement": "Percentage of organoids with optic vesicles (%)", "setting": "[3]; 40 nM", "result": 21, "unit": "%"},
      {"measurement": "Yield of optic vesicle brain organoids", "setting": "[3]; 60 nM, among concentrations ranging from 0 to 120 nM", "result": "best results (highest yield of optic vesicle brain organoids)"},
      {"measurement": "Formation of pigmented structures (possibly primordial eye fields)", "setting": "[3]; 60 nM, at around day 30", "result": "reproducibly induced the formation of pigmented structures"},
      {"measurement": "Percentage of organoids with optic vesicles (%)", "setting": "[3]; 60 nM", "result": 80, "unit": "%"},
      {"measurement": "Percentage of organoids with optic vesicles (%)", "setting": "[3]; 100 nM", "result": 15, "unit": "%"},
      {"measurement": "Percentage of organoids with optic vesicles (%)", "setting": "[3]; 150 nM", "result": 10, "unit": "%"},
      {"measurement": "Percentage of organoids with optic vesicles (%)", "setting": "[3]; 200 nM", "result": 10, "unit": "%"},
      {"measurement": "Percentage of organoids with optic vesicles (%)", "setting": "[3]; 250 nM", "result": 8, "unit": "%"}
    ]},
    {"compound": "CC1=C(/C=C/C(C)=C/C=C/C(C)=C\\C(=O)O)C(C)(C)CCC1", "note": "[isotretinoin]", "values": [
      {"measurement": "Effect on A2E formation and lipofuscin accumulation", "setting": "[4]", "result": "inhibits A2E formation and lipofuscin accumulation"}
    ]},
    {"compound": "N[C@@H](CC(=O)O)C(=O)O", "note": "[aspartate]", "values": [
      {"measurement": "ERG amplitude upon light flashes, single organoid recording", "setting": "[5]", "result": "< −400", "unit": "pV"},
      {"measurement": "ERG hyperpolarization after washout of aspartate", "setting": "[5]", "result": "−147", "unit": "pV"},
      {"measurement": "ERG hyperpolarization on average during aspartate treatment", "setting": "[5]", "result": "−278", "unit": "pV"},
      {"measurement": "Effect on ERG b-wave", "setting": "[5]", "result": "blocked the b-wave"}
    ]}
  ]
}
